These results are taken from patent publication US20210346394A1, “Remyelination Therapy” (The Regents of the University of California, priority 2016, published 2021).

SMILES strings stand for the structures.

For experiment [1], the system named is demyelinated lesion in corpus callosum. Description: Lysolecithin-induced demyelination of the corpus callosum. It counts as in vivo. The note with it: mice, 10 mg/kg for 7 days after lysolecithin, 10 days post injection, vs vehicle. How it is done:
Example 5. Effects of BZA on OPC Differentiation. Lysolecithin was injected in the corpus callosum of mice and analyzed at 6 days after injection, showing a demyelinated lesion area. Mice were treated with either BZA (10 mg/kg) or vehicle control for 7 days after injection of lysolecithin. Mice were euthanized at 10 days post injection and brains were sectioned and immunostained for myelin oligodendrocyte glycoprotein peptide (MOG), Adenomatous polyposis coli (APC-a maker of mature oligodendrocytes) and Olig2. Quantification of APC-positive cells indicated a 2-fold increase in remyelination in the corpus callosum after treatment with BZA, as depicted in FIG. 3.
Example 6. BZA effects on remyelination kinetics. Toxic, focal demyelinating injury was induced in the corpus callosum of 8-week old adult mice the rate and extent of remyelination was assessed, using previously described methodology. Demyelination was induced by injecting 1 μl of 1% solution of lysolecithin. Essential to this demyelinating model is the timeline for repair, comprising active demyelination [1-3 days post lesion (dpl)], OPC recruitment (3-7 dpl, peaking at 5 dpl), oligodendrocyte differentiation (7-10 dpl) and active remyelination (14-21 dpl). Oligodendrocyte differentiation and remyelination at 10 dpl was analyzed, allowing assessment of BZA effects on the kinetics of myelin repair. […]

The subject of experiment [2] is OPCs derived from WT P7 rat pups. Description: Differentiation of isolated OPCs treated with SERMs (MBP/PDGFRα/DAPI immunostaining). It is filed as cell-based. The following applies: 500 nM for 48 hours. How it is done: Example 3. OPC Differentiation. To assess the effect of selected SERMs on myelination, OPCs were derived from WT P7 rat pups using previously validated methodology, cultured in isolation, and treated with a select group of SERMs at a preliminary concentration of 500 nM for 48 hours. Cells were then permeabilized and immunostained for MBP (oligodendrocytes), PDGFRα (OPCs), and DAPI (cell bodies).

For `Cc1c(-c2ccc(O)cc2)n(Cc2ccc(OCCN3CCCCCC3)cc2)c2ccc(O)cc12` [BZA, bazedoxifene], in experiment [1], the “increase in remyelination (APC-positive cells) in the corpus callosum” value turned out to be 2 fold. For the compound `CC/C(=C(\c1ccccc1)c1ccc(OCCN(C)C)cc1)c1ccccc1` [tamoxifen], the OPC differentiation entry in experiment [2] is “significantly enhanced OPC differentiation”. On to `N#CC(Cc1ccc(O)cc1)c1ccc(O)cc1` (stereo not drawn) [2,3-bis(4-hydroxyphenyl)-propionitrile], for which, in experiment [2], the OPC differentiation entry was “significantly enhanced OPC differentiation”.
